# In US20250059171A1 (Hoffmann-La Roche Inc., priority 2021, published 2025):
# What was measured:
# MERS-CoV 3CLpro = MERS-CoV 3CLpro (Middle East respiratory syndrome-related coronavirus, UniProt K9N7C7); test: biochemical
# SARS-CoV 3CLpro = SARS-CoV 3CLpro (Severe acute respiratory syndrome coronavirus, UniProt P0C6X7); test: biochemical
# SARS-CoV-2 3CLpro = SARS-CoV-2 3CLpro (Severe acute respiratory syndrome coronavirus 2, UniProt P0DTD1); test: biochemical
# HCoV-229E 3CLpro = HCoV-229E 3CLpro (Human coronavirus 229E, UniProt P0C6X1); test: HCoV-229E 3CLpro inhibition assay (FRET); type: biochemical
# Chain of HCoV-229E 3CLpro (P0C6X1 2966-3267): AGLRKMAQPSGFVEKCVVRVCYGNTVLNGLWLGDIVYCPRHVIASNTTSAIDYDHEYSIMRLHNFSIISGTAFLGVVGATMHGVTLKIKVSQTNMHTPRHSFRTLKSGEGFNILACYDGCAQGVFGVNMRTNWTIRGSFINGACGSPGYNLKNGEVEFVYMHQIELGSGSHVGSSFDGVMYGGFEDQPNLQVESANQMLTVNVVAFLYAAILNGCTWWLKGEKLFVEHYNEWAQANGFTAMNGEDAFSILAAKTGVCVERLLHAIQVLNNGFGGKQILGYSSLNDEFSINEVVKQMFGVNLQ
# Chain of MERS-CoV 3CLpro (K9N7C7 3248-3553): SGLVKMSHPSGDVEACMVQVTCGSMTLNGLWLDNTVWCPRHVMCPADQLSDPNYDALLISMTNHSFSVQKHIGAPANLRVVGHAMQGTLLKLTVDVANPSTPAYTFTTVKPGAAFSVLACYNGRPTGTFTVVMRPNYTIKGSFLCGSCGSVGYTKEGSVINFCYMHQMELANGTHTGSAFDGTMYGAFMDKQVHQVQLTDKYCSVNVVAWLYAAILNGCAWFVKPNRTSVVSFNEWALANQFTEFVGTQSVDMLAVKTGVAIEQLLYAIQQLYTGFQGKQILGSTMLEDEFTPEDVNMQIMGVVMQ
SMILES,IC50 (MERS-CoV 3CLpro) [µM],IC50 (SARS-CoV 3CLpro) [µM],IC50 (SARS-CoV-2 3CLpro) [µM],IC50 (HCoV-229E 3CLpro) [µM]
"CCC(C)(C)[C@H](NC(=O)C1(F)CC1)C(=O)N1CC(C)(C)C[C@H]1C(=O)NN(C[C@@H]1CCNC1=O)C(=O)[C@H](F)Cl [Example 154, N-[(1S)-1-[(2S)-2-[[[(2R)-2-chloro-2-fluoro-acetyl]-[[(3S)-2-oxopyrrolidin-3-yl]methyl]amino]carbamoyl]-4,4-dimethyl-pyrrolidine-1-carbonyl]-2,2-dimethyl-butyl]-1-fluoro-cyclopropanecarboxamide]",0.305,0.021,0.017,0.052
"CC(C)(C)[C@H](NC(=O)C(F)(F)F)C(=O)N1CCC(C)(C)[C@H]1C(=O)NN(C[C@@H]1CCNC1=O)C(=O)[C@H](F)Cl [Example 155a, N-[(1S)-1-[(2S)-2-[[[(2R)-2-chloro-2-fluoro-acetyl]-[[(3S)-2-oxopyrrolidin-3-yl]methyl]amino]carbamoyl]-3,3-dimethyl-pyrrolidine-1-carbonyl]-2,2-dimethyl-propyl]-2,2,2-trifluoro-acetamide]",1.33,0.028,0.024,0.739
"CC(C)(C)[C@H](NC(=O)C(F)(F)F)C(=O)N1CCC(C)(C)[C@@H]1C(=O)NN(C[C@@H]1CCNC1=O)C(=O)[C@H](F)Cl [Example 155b, N-[(1S)-1-[(2R)-2-[[[(2R)-2-chloro-2-fluoro-acetyl]-[[(3S)-2-oxopyrrolidin-3-yl]methyl]amino]carbamoyl]-3,3-dimethyl-pyrrolidine-1-carbonyl]-2,2-dimethyl-propyl]-2,2,2-trifluoro-acetamide]",> 10,2.44,1.57,> 10
"CC1(C)[C@@H]2[C@@H](C(=O)NN(C[C@@H]3CCNC3=O)C(=O)[C@H](F)Cl)N(C(=O)[C@@H](NC(=O)C3(F)CC3)C3CCC3)C[C@@H]21 [Example 156, N-[(1S)-2-[(1R,2S,5S)-2-[[[(2R)-2-chloro-2-fluoro-acetyl]-[[(3S)-2-oxopyrrolidin-3-yl]methyl]amino]carbamoyl]-6,6-dimethyl-3-azabicyclo[3.1.0]hexan-3-yl]-1-cyclobutyl-2-oxo-ethyl]-1-fluoro-cyclopropanecarboxamide]",0.106,0.028,0.014,0.032
"CC1(C)[C@@H]2[C@@H](C(=O)NN(C[C@@H]3CCNC3=O)C(=O)[C@@H](F)Cl)N(C(=O)[C@@H](NC(=O)C3(F)CC3)C3CCC3)C[C@@H]21 [Example 157, N-[(1S)-2-[(1R,2S,5S)-2-[[[(2S)-2-chloro-2-fluoro-acetyl]-[[(3S)-2-oxopyrrolidin-3-yl]methyl]amino]carbamoyl]-6,6-dimethyl-3-azabicyclo[3.1.0]hexan-3-yl]-1-cyclobutyl-2-oxo-ethyl]-1-fluoro-cyclopropanecarboxamide]",0.149,0.058,0.044,0.06
"CC(C)(C)[C@H](NC(=O)[C@@H]1CC1(F)F)C(=O)N1C[C@H](C(F)(F)F)C[C@H]1C(=O)NN(C[C@@H]1CCNC1=O)C(=O)[C@H](F)Cl [Example 158, (1S)—N-[(1S)-1-[(2S,4R)-2-[[[(2R)-2-chloro-2-fluoro-acetyl]-[[(3S)-2-oxopyrrolidin-3-yl]methyl]amino]carbamoyl]-4-(trifluoromethyl)pyrrolidine-1-carbonyl]-2,2-dimethyl-propyl]-2,2-difluoro-cyclopropanecarboxamide]",0.08,0.017,0.011,0.034
"CC(C)(C)[C@H](NC(=O)[C@@H]1CC1(F)F)C(=O)N1C[C@H](C(F)(F)F)C[C@H]1C(=O)NN(C[C@@H]1CCNC1=O)C(=O)[C@@H](F)Cl [Example 159, (1S)—N-[(1S)-1-[(2S,4R)-2-[[[(2S)-2-chloro-2-fluoro-acetyl]-[[(3S)-2-oxopyrrolidin-3-yl]methyl]amino]carbamoyl]-4-(trifluoromethyl)pyrrolidine-1-carbonyl]-2,2-dimethyl-propyl]-2,2-difluoro-cyclopropanecarboxamide]",0.103,0.013,0.013,0.04
"CC[C@H](C)[C@H](NC(=O)C1(F)CC1)C(=O)N1C[C@H](C(F)(F)F)C[C@H]1C(=O)NN(C[C@@H]1CCNC1=O)C(=O)[C@H](F)Cl [Example 160, N-[(1S,2S)-1-[(2S,4R)-2-[[[(2R)-2-chloro-2-fluoro-acetyl]-[[(3S)-2-oxopyrrolidin-3-yl]methyl]amino]carbamoyl]-4-(trifluoromethyl)pyrrolidine-1-carbonyl]-2-methyl-butyl]-1-fluoro-cyclopropanecarboxamide]",0.105,0.019,0.013,0.024
"CC[C@H](C)[C@H](NC(=O)C1(F)CC1)C(=O)N1C[C@H](C(F)(F)F)C[C@H]1C(=O)NN(C[C@@H]1CCNC1=O)C(=O)[C@@H](F)Cl [Example 161, N-[(1S,2S)-1-[(2S,4R)-2-[[[(2S)-2-chloro-2-fluoro-acetyl]-[[(3S)-2-oxopyrrolidin-3-yl]methyl]amino]carbamoyl]-4-(trifluoromethyl)pyrrolidine-1-carbonyl]-2-methyl-butyl]-1-fluoro-cyclopropanecarboxamide]",0.336,0.027,0.016,0.099
"CC(C)(C)C[C@H](NC(=O)C1(F)CC1)C(=O)N1C[C@H]2[C@@H]([C@H]1C(=O)NN(C[C@@H]1CCNC1=O)C(=O)[C@H](F)Cl)C2(C)C [Example 162, N-[(1S)-1-[(1R,2S,5S)-2-[[[(2R)-2-chloro-2-fluoro-acetyl]-[[(3S)-2-oxopyrrolidin-3-yl]methyl]amino]carbamoyl]-6,6-dimethyl-3-azabicyclo[3.1.0]hexane-3-carbonyl]-3,3-dimethyl-butyl]-1-fluoro-cyclopropanecarboxamide]",0.094,0.015,0.012,0.033
"CC(C)(C)[C@H](NC(=O)C(F)(F)F)C(=O)N1C[C@@H]2CCC[C@@H]2[C@H]1C(=O)NN(C[C@@H]1CCCNC1=O)C(=O)[C@H](F)Cl [Example 164a, N-[(1S)-1-[(3S,3aS,6aR)-3-[[[(2R)-2-chloro-2-fluoro-acetyl]-[[(3S)-2-oxo-3-piperidyl]methyl]amino]carbamoyl]-3,3a,4,5,6,6a-hexahydro-1H-cyclopenta[c]pyrrole-2-carbonyl]-2,2-dimethyl-propyl]-2,2,2-trifluoro-acetamide]",0.243,0.016,0.008,0.098
"CC[C@H](C)[C@H](NC(=O)C1(F)CC1)C(=O)N1C[C@H]2[C@@H]([C@H]1C(=O)NN(C[C@@H]1CCCNC1=O)C(=O)[C@H](F)Cl)C2(C)C [Example 166a, N-[(1S,2S)-1-[(1R,2S,5S)-2-[[[(2R)-2-chloro-2-fluoro-acetyl]-[[(3S)-2-oxo-3-piperidyl]methyl]amino]carbamoyl]-6,6-dimethyl-3-azabicyclo[3.1.0]hexane-3-carbonyl]-2-methyl-butyl]-1-fluoro-cyclopropanecarboxamide]",0.229,0.018,0.013,0.047
"CC[C@H](C)[C@H](NC(=O)C1(F)CC1)C(=O)N1C[C@H]2[C@@H]([C@H]1C(=O)NN(C[C@H]1CCCNC1=O)C(=O)[C@H](F)Cl)C2(C)C [Example 166b, N-[(1S,2S)-1-[(1R,2S,5S)-2-[[[(2R)-2-chloro-2-fluoro-acetyl]-[[(3R)-2-oxo-3-piperidyl]methyl]amino]carbamoyl]-6,6-dimethyl-3-azabicyclo[3.1.0]hexane-3-carbonyl]-2-methyl-butyl]-1-fluoro-cyclopropanecarboxamide]",0.239,0.03,0.019,0.051
"CCC(C)(C)[C@H](NC(=O)C1CC1)C(=O)N1C[C@@H]2CCC[C@@H]2[C@H]1C(=O)NN(C[C@@H]1CCCNC1=O)C(=O)[C@H](F)Cl [Example 167a, N-[(1S)-1-[(3S,3aS,6aR)-3-[[[(2R)-2-chloro-2-fluoro-acetyl]-[[(3S)-2-oxo-3-piperidyl]methyl]amino]carbamoyl]-3,3a,4,5,6,6a-hexahydro-1H-cyclopenta[c]pyrrole-2-carbonyl]-2,2-dimethyl-butyl]cyclopropanecarboxamide]",0.169,0.015,0.01,0.053
"CCC(C)(C)[C@H](NC(=O)C1CC1)C(=O)N1C[C@@H]2CCC[C@@H]2[C@H]1C(=O)NN(C[C@H]1CCCNC1=O)C(=O)[C@H](F)Cl [Example 167b, N-[(1S)-1-[(3S,3aS,6aR)-3-[[[(2R)-2-chloro-2-fluoro-acetyl]-[[(3R)-2-oxo-3-piperidyl]methyl]amino]carbamoyl]-3,3a,4,5,6,6a-hexahydro-1H-cyclopenta[c]pyrrole-2-carbonyl]-2,2-dimethyl-butyl]cyclopropanecarboxamide]",1.63,0.041,0.019,0.21
"CCC(C)(C)[C@H](NC(=O)C1CC1)C(=O)N1CC(C)(C)C[C@H]1C(=O)NN(C[C@@H]1CCCNC1=O)C(=O)[C@H](F)Cl [Example 168a, N-[(1S)-1-[(2S)-2-[[[(2R)-2-chloro-2-fluoro-acetyl]-[[(3S)-2-oxo-3-piperidyl]methyl]amino]carbamoyl]-4,4-dimethyl-pyrrolidine-1-carbonyl]-2,2-dimethyl-butyl]cyclopropanecarboxamide]",0.29,0.016,0.011,0.104
"CCC(C)(C)[C@H](NC(=O)C1CC1)C(=O)N1CC(C)(C)C[C@H]1C(=O)NN(C[C@H]1CCCNC1=O)C(=O)[C@H](F)Cl [Example 168b, N-[(1S)-1-[(2S)-2-[[[(2R)-2-chloro-2-fluoro-acetyl]-[[(3R)-2-oxo-3-piperidyl]methyl]amino]carbamoyl]-4,4-dimethyl-pyrrolidine-1-carbonyl]-2,2-dimethyl-butyl]cyclopropanecarboxamide]",2.11,0.185,0.1,0.219
